# Assay results: PubChem BioAssay (NCI)
# “And” between values parts separate entries of the source, which are not always exact repeats. Equal entries are not always repeated.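 How tested: cells in 96-well plates exposed to compound for 48 hours at five concentrations. GI50 = concentration required for 50% inhibition of growth. Definition used: TGI = concentration required for complete inhibition of growth.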
# How the values were obtained:
# Test in all cases: NCI tumour cell line growth inhibition, 48 h
# DU-145 prostate = system: DU-145 prostate
# T-47D breast = system: T-47D breast
# MDA-MB-231 breast = system: MDA-MB-231 breast
# PC-3 prostate = system: PC-3 prostate
# BT-549 breast = system: BT-549 breast
Compound,GI50 (DU-145 prostate),TGI (DU-145 prostate),GI50 (T-47D breast),TGI (T-47D breast),GI50 (MDA-MB-231 breast),TGI (MDA-MB-231 breast),GI50 (PC-3 prostate) [µM],TGI (PC-3 prostate),GI50 (BT-549 breast) [µM],TGI (BT-549 breast) [µM]
CC(C)(C)OC(=O)N(CCCn1c2c(c3ccccc3c1=O)C(=O)c1ccccc1-2)CCN(CCCn1c2c(c3ccccc3c1=O)C(=O)c1ccccc1-2)C(=O)OC(C)(C)C,> 50 µM,> 50 µM,> 50 µM,> 50 µM,15.3 µM,> 50 µM,> 50,> 50 µM,> 50,> 50
CNC1=C(Br)C(=O)C2=C(C1=O)C1C3=C(C(=O)C=CC3=O)C2c2ccccc21 (stereo unspecified),4.06 µM,10.3 µM,2.9 µM,> 40.3 µM,2.94 µM,4.93 µM,1.38,,2.45,5.98
S=C(S)NCCCn1ccnc1,,> 100 µM,,> 100 µM,,> 100 µM,,> 100 µM,,> 100
CC(=O)OC1C(O)COC(Oc2c(C)c3c4c(c2O)[C@@H](C)CC[C@@H]4[C@@H](C)C[C@H]3C=C(C)C)C1O (stereo partly specified),12.8 µM,29 µM,39.4 µM,> 100 µM,,,11.3,26.3 µM,,
COc1ccccc1NC(=O)N/C(N)=N/c1nc2ccccc2s1,0.159 µM,> 100 µM,0.394 µM,> 100 µM,3.48 µM,> 100 µM,0.0906,> 100 µM,0.334,> 100
COc1ccc(CNCCCN2C(=O)c3ccc4c5c(ccc(c35)C2=O)C(=O)N(CCCNCCCCNCCCN)C4=O)c(OC)c1OC,1.55 µM,3.44 µM,0.335 µM,1.88 µM,2.44 µM,18 µM,2.4,26.3 µM,6.13,21.5
C[C@]1(O)CC(=O)[C@]2(O)C3=C(C=C[C@]2(O)C1)C(=O)c1c(O)cccc1C3=O,1.75 µM,3.24 µM,1.85 µM,4.57 µM,2.25 µM,6.6 µM,2.42,10.1 µM,2.62,9.44
O=C(Oc1ccccc1Cl)c1cccnc1Nc1ccnc(C(F)(F)F)c1,15.7 µM,30.4 µM,29.4 µM,> 100 µM,11.9 µM,46.7 µM,17.8,36.3 µM,5.12,22.4
COc1ccc(-c2ccc(=O)oc2-c2cc(OC)c(OC)c(OC)c2)cc1O,0.0297 µM,,> 100 µM,> 100 µM,0.0613 µM,> 100 µM,0.0183,> 100 µM,0.0919,> 100
Cc1cc2cc(Oc3ccnc(Nc4cccc(CS(=O)(=O)NCCN(C)C)c4)n3)ccc2[nH]1,9.86 µM,21.6 µM,4.93 µM,22.7 µM,4.61 µM,17.2 µM,3.38,13.2 µM,5.03,18.1
Cc1ccc2nc(NC(=O)CSC(=S)N3CCN(Cc4ccccc4)CC3)sc2c1,> 100 µM,> 100 µM,72.3 µM,> 100 µM,> 100 µM,> 100 µM,> 100,> 100 µM,> 100,> 100
Cn1c(-c2c(N)n(Cc3ccc(Cl)cc3)c3nc(C#N)c(C#N)nc23)nc2ccccc21,5.94 µM,17.4 µM,1.83 µM,14.5 µM,1.69 µM,9.41 µM,4.62,> 50 µM,6.44,15.6
COc1cc2c(C#N)n3c(c2cc1OC)C(=O)C(c1ccccc1)Oc1ccccc1-3 (stereo unspecified),91 µM,> 100 µM,,,4.05 µM,68.6 µM,,,1.97,5.54
CC(C)(C)c1ccc(NC(=O)c2cc(=O)c3ccccc3[nH]2)c(C(C)(C)C)c1O,10.7 µM,23.5 µM,7.49 µM,21.9 µM,3.29 µM,13.9 µM,2.6,8.29 µM,6.77,19.9
COc1ccc(OC)c(-c2cn3nc(-c4c[nH]c5ccc(Br)cc45)sc3n2)c1,2.8 µM,7.71 µM,,,1.73 µM,4.05 µM,1.87,4.66 µM,2.9,11.2
COc1cc2c(c(OC)c1OC)C(=O)c1c-2n(CCCN)c(=O)c2cc([N+](=O)[O-])ccc12,0.962 µM,2.31 µM,2.48 µM,6.91 µM,1.8 µM,4 µM,0.736,3.43 µM,1.76,3.53
CCOc1ccc2c(-c3ccnc(Nc4cccc(C(F)(F)F)c4)n3)cnn2n1,> 19.5 µM,> 25 µM,1.4 µM,> 25 µM,14.7 µM,> 25 µM,> 16.1,> 25 µM,> 23.8,> 25
Cc1cc(Cl)ccc1OCC(=O)Oc1c(Cl)c(Cl)c(Cl)c(Cl)c1Cl,,49.2 µM,,,,38.1 µM,,80.1 µM,,> 100
CCCCCCCCCCCCCCCC[N+](C)(C)C,0.233 µM and 1.4 µM,0.665 µM and 2.91 µM,0.272 µM and 2.56 µM,1.2 µM and 9.59 µM,0.169 µM and 1.38 µM,0.405 µM and 3.55 µM,0.15,0.376 µM,0.267,0.873
CC(C)NCCCNC1=C(Cl)C(=O)c2ccccc2C1=O,1.98 µM,3.49 µM,8.02 µM,33.8 µM,4.08 µM,18.3 µM,3.92,20.7 µM,5.36,18.2
CN(C)c1ccc2c(SCC(=O)OCC(=O)[C@@]3(O)CC[C@H]4[C@@H]5CCC6=CC(=O)C=C[C@]6(C)[C@H]5C(=O)C[C@@]43C)c3ccc(N(C)C)cc3nc2c1,,58.2 µM,,> 100 µM,,> 93.8 µM,,> 100 µM,,> 49.5
C=C(C)[C@@H]1CC[C@]2(C)[C@H](CC=C3[C@@H]4CC(C)(C)CC[C@]4(C(=O)OC)CC[C@]32C)[C@@]1(C)CC/C(N)=N/O,1.95 µM,4.28 µM,2.46 µM,9.77 µM,1.61 µM,3.24 µM,1.91,7.81 µM,1.93,4.12

Compound,GI50 (DU-145 prostate),TGI (DU-145 prostate),GI50 (T-47D breast),TGI (T-47D breast),GI50 (MDA-MB-231 breast),TGI (MDA-MB-231 breast),GI50 (PC-3 prostate) [µM],TGI (PC-3 prostate),GI50 (BT-549 breast) [µM],TGI (BT-549 breast) [µM]
O=c1cc(-c2ccccc2)oc2cc(OCc3cn(Cc4ccc(F)cc4)nn3)cc(O)c12,> 100 µM,> 100 µM,,,16.6 µM,> 100 µM,,,7.98,> 100
CCCCCn1ncc(-c2c(O)c(O)cc3c(O)c(-c4c(C)cc5c(-c6cnn(CCCCC)n6)c(O)c(O)cc5c4O)c(C)cc23)n1,0.0647 µM,6.02 µM,0.0627 µM,1.42 µM,0.182 µM,5.67 µM,0.147,2.53 µM,0.0913,5.09
C=C(C)[C@@H]1CC[C@]2(c3ncc(C)o3)CC[C@]3(C)[C@H](CC[C@@H]4[C@@](C)(CCC#N)[C@H](C(=C)C)CC[C@]43C)[C@@H]12,3.54 µM,13.2 µM,3.19 µM,15 µM,2.53 µM,6.41 µM,1.83,4 µM,14.4,29.2
COc1ncnc2c1ncn2C/C(Br)=C(\Br)CCl,5.31 µM,18.2 µM,2.37 µM,6.84 µM,2.4 µM,7.28 µM,9.12,23.3 µM,,
CN1CCN(c2ccc(NC3=C(Cl)C(=O)c4ncccc4C3=O)cc2C(F)(F)F)CC1,1.91 µM,3.71 µM,1.33 µM,5.31 µM,1.69 µM,5.02 µM,2.23,6.85 µM,13,26.3
CCN(CCc1ccc(F)cc1)c1ccc(CO)c(Cl)c1,14.4 µM,29.2 µM,1.39 µM,12.7 µM,11.4 µM,24.4 µM,10.9,24.8 µM,11.4,23.8
CCCCn1c(=O)c(/C=C/C(=O)/C=C/c2ccc(O)c(OC)c2)cc2ccc(Cl)cc21,1.79 µM,3.92 µM,1.85 µM,6.28 µM,2.51 µM,7.73 µM,1.89,4.71 µM,1.76,4.25
Cc1occc1C(=S)Nc1ccc(Cl)c(C(=O)OCC2CC2)c1,,> 100 µM,,> 100 µM,,> 100 µM,,> 100 µM,,81.5
O=C(/C=C/c1ccccc1)c1ccc(O)c(CN2CCN(c3cc4c(cc3F)c(=O)c(C(=O)O)cn4C3CC3)CC2)c1,1.53 µM,> 100 µM,1.77 µM,> 100 µM,1.94 µM,7.65 µM,0.897,> 100 µM,0.989,26.3
COc1cc([N+](=O)[O-])c(S(=O)(=O)O)cc1-n1nc(-c2ccccc2)n[n+]1-c1cc(S(=O)(=O)[O-])c([N+](=O)[O-])cc1OC,,> 100 µM,,> 100 µM,,> 100 µM,,> 100 µM,,
CCc1nc2cc(/C=C/C(=O)NO)c(F)cc2c(=O)n1CCc1ccccc1,0.666 µM,10.5 µM,0.29 µM,4.95 µM,0.668 µM,7.97 µM,3.96,75.6 µM,2.32,13.4
COc1cc2c3c(n(CCCn4cccn4)c(=O)c2cc1OC)-c1cc2c(cc1C3=O)OCO2,0.437 µM,5.57 µM,2.2 µM,> 100 µM,8.65 µM,35.5 µM,16.3,> 100 µM,3.4,> 70
COc1cc2c(cc1OCCN1C(=O)c3cccc4cccc(c34)C1=O)N=C[C@@H]1CCCN1C2=O,18.1 µM,17.4 µM and 35.9 µM,18.9 µM,28.2 µM and > 100 µM,> 100 µM,14.6 µM and > 100 µM,15,13.6 µM and 28.2 µM,,16.9
CC(=O)OC1CC(C)c2c1ncnc2N1CCN(C(=O)OC(C)(C)C)CC1 (stereo unspecified),31.9 µM,86.9 µM,54 µM,> 100 µM,42.8 µM,> 100 µM,38.7,> 100 µM,61,> 100
CN([N-]C(=O)CC(=O)[N-]N(C)C(=S)c1ccccc1)C(=S)c1ccccc1.[Cu+2],0.033 µM,0.133 µM,< 0.01 µM,0.101 µM,0.0221 µM,0.132 µM,0.0101,0.0689 µM,0.138,0.271
COc1ccc(S(=O)(=O)N2CCCCC2)cc1NC(=O)c1[nH]c(C)c2c1CCCCC2=O,7.56 µM,> 100 µM,1.41 µM,46.9 µM,0.718 µM,> 100 µM,2.6,> 100 µM,4,> 100
COc1cc(C)c(N(C)C(=O)CN(C)C)cc1Nc1nc(Nc2cccc(F)c2C(N)=O)c2cc[nH]c2n1,> 25 µM,> 25 µM,> 25 µM,> 25 µM,> 25 µM,> 25 µM,> 25,> 25 µM,18.4,> 25
Cc1cc(C)c(S(=O)(=O)Oc2ccccc2[N+](=O)[O-])c(C)c1,2.38 µM,> 31.5 µM,4.79 µM,> 100 µM,3.7 µM,> 100 µM,3.31,> 100 µM,3.19,> 100
COc1cccc2c1C(=O)c1c(O)c3c(c(O)c1C2=O)C[C@@](O)(C(=O)COC(=O)c1cccnc1)C[C@@H]3OC1CC(N)C(O)C(C)O1 (stereo partly specified),0.223 µM,14.1 µM,0.0982 µM,2.64 µM,0.327 µM,1.96 µM,0.222,1.43 µM,0.193,1.02
S=C1SC2(CCCCCC2)NC2=C1CCCCC2,,> 100 µM,,> 100 µM,,> 100 µM,,> 100 µM,,
CC(=O)c1ccc(NCn2nc(-c3ccccc3O)oc2=S)cc1,,,85.9 µM,> 100 µM,37.6 µM,> 100 µM,46.4,> 100 µM,56.2,> 100
c1ccc(CN2CCC3(CC2)ONC2=NCCN23)cc1,> 100 µM,> 100 µM,> 100 µM,> 100 µM,> 100 µM,> 100 µM,49.5,> 100 µM,> 100,> 100
